From patent US7163946B2 (Ligand Pharmaceuticals Incorporated, priority 2002, dated 2007)

What was measured:
hPR [1] = biological target: T1, hPR (Homo sapiens, UniProt P06401); assay: hPR cotransfection assay in CV-1 cells, agonist mode; assay type: cell-based; settings: for Emax: CV-1, CV-1 cells, read-out: hPR Agonist CV-1 Cells Eff. (%); for Emax / hPR Agonist CV-1 Cells Eff. (%): relative to maximal response of progesterone as 100%
T1 sequence (P06401 1-933): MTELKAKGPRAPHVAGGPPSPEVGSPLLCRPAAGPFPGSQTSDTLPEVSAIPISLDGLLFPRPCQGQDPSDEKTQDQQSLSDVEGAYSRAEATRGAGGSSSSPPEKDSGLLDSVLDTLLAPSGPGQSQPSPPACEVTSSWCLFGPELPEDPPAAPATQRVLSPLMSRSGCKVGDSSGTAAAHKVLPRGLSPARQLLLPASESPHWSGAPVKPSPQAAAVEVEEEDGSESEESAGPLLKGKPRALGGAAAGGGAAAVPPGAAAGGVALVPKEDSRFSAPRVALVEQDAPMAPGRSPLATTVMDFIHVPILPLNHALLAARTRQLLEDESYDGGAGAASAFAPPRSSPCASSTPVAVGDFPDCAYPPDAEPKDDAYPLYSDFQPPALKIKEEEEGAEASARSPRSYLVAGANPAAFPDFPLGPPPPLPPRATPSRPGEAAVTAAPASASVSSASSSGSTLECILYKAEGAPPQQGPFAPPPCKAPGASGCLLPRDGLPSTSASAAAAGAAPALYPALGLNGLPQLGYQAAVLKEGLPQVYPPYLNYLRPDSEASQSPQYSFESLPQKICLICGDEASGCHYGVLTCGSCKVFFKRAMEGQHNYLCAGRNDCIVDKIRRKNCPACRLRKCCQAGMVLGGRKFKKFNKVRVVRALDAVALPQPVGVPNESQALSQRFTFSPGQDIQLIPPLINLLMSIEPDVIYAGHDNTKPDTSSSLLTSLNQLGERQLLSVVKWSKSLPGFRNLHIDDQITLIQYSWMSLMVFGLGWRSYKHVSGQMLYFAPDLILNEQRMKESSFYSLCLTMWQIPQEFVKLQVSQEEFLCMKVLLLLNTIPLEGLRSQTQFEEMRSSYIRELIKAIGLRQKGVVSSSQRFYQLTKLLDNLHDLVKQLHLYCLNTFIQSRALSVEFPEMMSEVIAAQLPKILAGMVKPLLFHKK

hPR [2] = biological target: T1, hPR; assay: hPR cotransfection assay in CV-1 cells, antagonist mode; assay type: cell-based; settings: for Emax: CV-1, CV-1 cells, read-out: hPR Antagonist CV-1 Cells Eff. (%); for Emax / hPR Antagonist CV-1 Cells Eff. (%): maximal inhibition of reference agonist at EC50 concentration; for IC50 / hPR Antagonist CV-1 Cells Eff. (%): CV-1 cells
hPR [3] = biological target: T2, hPR (Homo sapiens, UniProt P06401); assay: T47D alkaline phosphatase assay, agonist mode; assay type: cell-based; settings: T47D human breast cancer cells; for Emax: T47D, read-out: hPR Agonist T47D cells Eff. (%)
T2 sequence (P06401 679-933 limits assumed): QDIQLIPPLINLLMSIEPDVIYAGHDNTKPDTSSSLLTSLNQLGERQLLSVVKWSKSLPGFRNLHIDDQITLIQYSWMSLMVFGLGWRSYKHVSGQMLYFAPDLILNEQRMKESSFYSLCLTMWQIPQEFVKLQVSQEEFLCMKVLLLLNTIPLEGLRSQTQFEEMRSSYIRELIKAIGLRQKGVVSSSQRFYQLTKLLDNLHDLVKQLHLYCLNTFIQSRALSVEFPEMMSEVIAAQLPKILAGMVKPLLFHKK

hPR [4] = biological target: T2, hPR; assay: T47D alkaline phosphatase assay, antagonist mode; assay type: cell-based; settings: T47D human breast cancer cells; for Emax: read-out: hPR Antagonists T47D Cells Eff. (%); for IC50: read-out: hPR Antagonists T47D Cells IC50
hPR-A = biological target: T3, hPR-A (Homo sapiens, UniProt P06401); assay: Receptor competitive binding assay; settings: read-out: PR binding Ki
T3 sequence (P06401 1-769 isoform P06401-2): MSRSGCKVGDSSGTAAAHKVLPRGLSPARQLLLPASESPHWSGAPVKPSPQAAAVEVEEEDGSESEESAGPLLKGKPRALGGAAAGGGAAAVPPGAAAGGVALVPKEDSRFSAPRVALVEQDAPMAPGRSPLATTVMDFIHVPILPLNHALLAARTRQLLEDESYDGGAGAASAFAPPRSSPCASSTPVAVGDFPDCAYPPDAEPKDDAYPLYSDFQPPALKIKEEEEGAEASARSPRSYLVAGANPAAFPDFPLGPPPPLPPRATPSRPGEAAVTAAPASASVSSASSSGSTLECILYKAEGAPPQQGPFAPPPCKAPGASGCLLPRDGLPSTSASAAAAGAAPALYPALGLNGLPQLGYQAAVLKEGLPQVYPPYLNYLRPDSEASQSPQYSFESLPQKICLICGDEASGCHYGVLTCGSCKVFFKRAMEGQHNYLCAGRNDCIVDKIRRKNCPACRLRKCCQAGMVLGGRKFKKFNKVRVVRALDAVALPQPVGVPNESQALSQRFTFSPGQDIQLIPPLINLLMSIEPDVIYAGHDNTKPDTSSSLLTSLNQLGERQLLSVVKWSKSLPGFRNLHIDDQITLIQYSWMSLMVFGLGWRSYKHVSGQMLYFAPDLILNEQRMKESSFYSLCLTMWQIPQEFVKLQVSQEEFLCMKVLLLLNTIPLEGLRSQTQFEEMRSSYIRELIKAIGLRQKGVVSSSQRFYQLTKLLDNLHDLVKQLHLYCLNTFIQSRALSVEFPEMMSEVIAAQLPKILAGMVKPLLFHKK

immature rabbits = assay: McPhail (Clauberg) rabbit assay of progestational activity; assay type: in vivo; settings: Oryctolagus cuniculus; estradiol-primed immature rabbits; glandular changes of the uterus; read-out: potency (MAD in mg/kg), minimum active dose
Procedure: The superiority of the 7,9-difluoro analogue compounds of the present invention was further characterized utilizing the McPhail rabbit model according to the following illustrative Examples. The Clauberg or McPhail assay is a classic assay utilizing rabbits to measure progestational activity. […] In this assay, immature rabbits are treated initially with estradiol, which induces growth in the uterus. This is followed by a progestin, which causes a large change in the glandular content of the uterus. It is this change in the glandular component which is a measure of the progestational activity of a progestin. The measurement of these glandular changes is carried out histologically using stained sections of the uterus. The in vivo comparison between the new 7,9-difluoro compounds and analogues with substitution patterns different from 7,9-difluoro (U.S. Pat. Nos. 5,693,646 and 5,696,127) is tabulated in Tables 7 and 8. The in vivo potency of the progestins is presented as the minimum active dose (MAD).

[5] = CV-1 cells, read-out: hPR Agonist CV-1 Cells EC50
[6] = Tables 3 and 4, values without footnote, read-out: hPR agonist potencies (EC50 in nM) in the cotransfection assay

| SMILES | Emax (hPR [1]) | EC50 (hPR [1]; [5]) | Emax (hPR [2]) | IC50 (hPR [2]) | EC50 (hPR [3]) | Emax (hPR [3]) | Emax (hPR [4]) | IC50 (hPR [4]) | also measured |
| --- | --- | --- | --- | --- | --- | --- | --- | --- | --- |
| C#CCC1Oc2c(F)cc(F)cc2-c2ccc3c(c21)C(C)=CC(C)(C)N3 (racemic) [Compound 71, (±)-7,9-difluoro-5-(2-propynyl)-1,2-dihydro-2,2,4-trimethyl-5H-chromeno[3,4-f]quinoline] |  |  |  |  |  |  |  |  | minimal effective dose (immature rabbits): < 0.5 mg/kg |
| C#C[C@]1(O)CC[C@H]2[C@@H]3CCC4=CC(=O)CC[C@@H]4[C@H]3C(=C)C[C@@]21CC [3-ketodesogestrel, reference compound] |  | 0.1 nM |  | > 10000 nM | 0.2 nM |  |  | > 10000 nM | hPR Agonist CV-1 Cells Eff. (%) (hPR [1]; CV-1 cells): 190%; hPR Antagonist CV-1 Cells Eff. (%) (hPR [2]): na (na = not active (i.e. efficacy of <20 and potency of >10,000)); hPR Agonist T47D cells Eff. (%) (hPR [3]): 94%; hPR Antagonists T47D Cells Eff. (%) (hPR [4]): na (na = not active (i.e. efficacy of <20 and potency of >10,000)); Ki (hPR-A): 0.3 nM |
| CC1=CC(C)(C)Nc2ccc3c(c21)/C(=C/c1ccccc1F)Oc1c(F)cc(F)cc1-3 [Compound 12, 7,9-difluoro-5(Z)-(2-fluorobenzylidene)-1,2-dihydro-2,2,4-trimethyl-5H-chromeno[3,4-f]quinoline] |  |  |  |  |  |  |  |  | EC50 (hPR [1]; [6]): 2.55 nM; minimal effective dose (immature rabbits): 0.5 mg/kg |
| CC1=CC(C)(C)Nc2ccc3c(c21)C(c1ccc(Cl)c(C)c1)Oc1ccc(F)cc1-3 (centres unmarked) [Formula I X=9-F 4-Cl-3-Me-Ph, reference compound] |  |  |  |  |  |  |  |  | minimal effective dose (immature rabbits): 1 mg/kg |
| COc1ccc2c(c1)-c1ccc3c(c1/C(=C/c1ccccc1)O2)C(C)=CC(C)(C)N3 [Formula II X=9-OMe Phenyl, reference compound] |  |  |  |  |  |  |  |  | EC50 (hPR [1]; [6]): 67 nM |
| CC1=CC(C)(C)Nc2ccc3c(c21)/C(=C/c1cc(F)ccc1C)Oc1ccccc1-3 [Formula II X=H 2-Me-5-F-Ph, reference compound] |  |  |  |  |  |  |  |  | EC50 (hPR [1]; [6]): 2.6 nM |
| CC(=O)O[C@]1(C(C)=O)CC[C@H]2[C@@H]3C[C@H](C)C4=CC(=O)CC[C@]4(C)[C@H]3CC[C@@]21C [MPA, reference compound] |  |  |  |  |  |  |  |  | hPR Agonist CV-1 Cells Eff. (%) (hPR [1]; CV-1 cells): 88%; hPR Antagonist CV-1 Cells Eff. (%) (hPR [2]): na (na = not active (i.e. efficacy of <20 and potency of >10,000)); hPR Agonist T47D cells Eff. (%) (hPR [3]): 114%; hPR Antagonists T47D Cells Eff. (%) (hPR [4]): na (na = not active (i.e. efficacy of <20 and potency of >10,000)) |
| CC(=O)[C@H]1CC[C@H]2[C@@H]3CCC4=CC(=O)CC[C@]4(C)[C@H]3CC[C@]12C [Prog., progesterone, reference compound] | 100% |  | < 20% |  |  | 100% | < 20% |  |  |
| CC#C[C@]1(O)CC[C@H]2[C@@H]3CCC4=CC(=O)CCC4=C3[C@@H](c3ccc(N(C)C)cc3)C[C@@]21C [RU486, mifepristone, reference compound] |  |  |  |  |  |  |  |  | hPR Agonist CV-1 Cells Eff. (%) (hPR [1]; CV-1 cells): na (na = not active (i.e. efficacy of <20 and potency of >10,000)); hPR Antagonist CV-1 Cells Eff. (%) (hPR [2]): 94%; hPR Agonist T47D cells Eff. (%) (hPR [3]): na (na = not active (i.e. efficacy of <20 and potency of >10,000)); hPR Antagonists T47D Cells Eff. (%) (hPR [4]): 94% |
| CN(C)c1ccc([C@H]2C[C@]3(C)[C@@H](CC[C@]3(O)CCCO)[C@@H]3CCC4=CC(=O)CCC4=C32)cc1 [ZK299, reference compound] | < 20% |  | 99% |  |  | < 20% | 86% |  |  |

More lines, main results first:

| Emax (hPR [1]) | EC50 (hPR [1]; [5]) | Emax (hPR [2]) | IC50 (hPR [2]) | EC50 (hPR [3]) | Emax (hPR [3]) | Emax (hPR [4]) | IC50 (hPR [4]) | SMILES | also measured |
| --- | --- | --- | --- | --- | --- | --- | --- | --- | --- |
| < 20% | > 10000 nM | 76% | 75 nM | 315 nM | 36% | 35% | 250 nM | COC1Oc2c(F)cc(F)cc2-c2ccc3c(c21)C(C)=CC(C)(C)N3 (racemic) [Compound 32, (±)-7,9-difluoro-5-methoxy-1,2-dihydro-2,2,4-trimethyl-5H-chromeno[3,4-f]quinoline] | Ki (hPR-A): 37 nM |
| < 20% | > 10000 nM | 79% | 42 nM | 195 nM | 77% | < 20% | > 10000 nM | CC1=CC(C)(C)Nc2ccc3c(c21)C(CC(=O)c1ccccc1)Oc1c(F)cc(F)cc1-3 (racemic) [Compound 45, (±)-7,9-difluoro-5-(2-oxo-2-phenylethyl)-1,2-dihydro-2,2,4-trimethyl-5H-chromeno[3,4-f]quinoline] | Ki (hPR-A): 18 nM |
|  | 28 nM |  | 24 nM | > 10000 nM |  | 29% | 4100 nM | CC1=CC(C)(C)Nc2ccc3c(c21)C(c1ccc(Cl)c(C)c1)Oc1c(F)cc(F)cc1-3 (single isomer, unassigned; (+)) [Compound 39, (+)-7,9-difluoro-5-(4-chloro-3-methylphenyl)-1,2-dihydro-2,2,4-trimethyl-5H-chromeno[3,4-f]quinoline] | hPR Agonist CV-1 Cells Eff. (%) (hPR [1]; CV-1 cells): 26%; hPR Antagonist CV-1 Cells Eff. (%) (hPR [2]): 62%; hPR Agonist T47D cells Eff. (%) (hPR [3]): na (na = not active (i.e. efficacy of <20 and potency of >10,000)) |
| 52% | 9.4 nM | < 20% | > 10000 nM | 79 nM | 72% | 26% | 830 nM | CC1=CC(C)(C)Nc2ccc3c(c21)/C(=C/C#N)Oc1c(F)cc(F)cc1-3 [Compound 24, 7,9-difluoro-5(Z)-cyanomethylidene-1,2-dihydro-2,2,4-trimethyl-5H-chromeno[3,4-f]quinoline] | Ki (hPR-A): 58 nM |
| 87% |  | < 20% |  |  | 117% | < 20% |  | C[C@]12CCC(=O)C=C1[C@@H]1C[C@@H]1[C@H]1[C@@H]3[C@@H]4C[C@@H]4[C@@]4(CCC(=O)O4)[C@@]3(C)CC[C@@H]12 [Drospirenone, reference compound] |  |
| 216% |  | < 20% |  |  | 96% | < 20% |  | C#C[C@]1(O)CC[C@H]2[C@@H]3CCC4=CC(=O)CC[C@@H]4[C@H]3CC[C@@]21CC [Levonorgestrel, reference compound] |  |
